From patent US6372769B1 (priority 1999, dated 2002)
“And” between values parts separate entries of the source, which are not always exact repeats. Equal values may be shown once.

How the values were obtained:
Conditions in all cases: in vivo
Septoria nodorum = test system: Septoria nodorum
Sphaerotheca fulginea = test system: Sphaerotheca fulginea
Pyricularia oryzae = test system: Pyricularia oryzae
[1] = test system: Erysiphe graminis f. sp. tritici
[2] = test system: Puccinia recondita f. sp. tritici
Plasmopara viticola = test system: Plasmopara viticola

SMILES | plant damage (necrosis / death of plant) in SNW test (Septoria nodorum) | percent disease control, Cucumber Powdery Mildew (CPM) (Sphaerotheca fulginea) | plant damage (necrosis / death of plant) in RB test (Pyricularia oryzae) | percent disease control, Wheat Powdery Mildew (WPM) [1] | percent disease control, Wheat Leaf Rust (WLR) [2] | percent disease control, Septoria on Wheat (SNW) (Septoria nodorum) | percent disease control, Grape Downy Mildew (GDM) (Plasmopara viticola) [%] | percent disease control, Rice Blast (RB) (Pyricularia oryzae)
O=C(Nc1cc(F)c(F)c(F)c1F)c1sc(C(F)(F)F)nc1C(F)(F)F [Compound 4] | —/5 | 0% and 0/5% | 50/5 | – | – | – | – | –
O=C(Nc1c(Br)cc(Br)cc1Br)c1sc(C(F)(F)F)nc1C(F)(F)F [Compound 3] | – | – | – | 85% and 80% and 50% | 99% and 90% and 85% | – | – | –
O=C(Nc1c(Cl)c(Cl)c(Cl)c(Cl)c1Cl)c1sc(C(F)(F)F)nc1C(F)(F)F [Compound 2] | – | – | – | 80% and 75% and 50% | 100% and 99% and 90% | – | – | –
O=C(Nc1c(Br)cc(OC(F)(F)F)cc1Br)c1sc(C(F)(F)F)nc1C(F)(F)F [Compound 5] | – | – | – | 95% and 80% | 100% and 95% | 80% and 75% | 0 | 95% and 90%
